From PMC11873635 (Acta Pharmaceutica Sinica. B, 2024)
Read-outs that look alike come from different tables or passages of the source.

Legend:
human SMS2 = target: T1, human SMS2 (Homo sapiens, UniProt Q8NHU3); test: purified SMS enzyme inhibitory assay in vitro; format: biochemical
T1 sequence (Q8NHU3 1-365): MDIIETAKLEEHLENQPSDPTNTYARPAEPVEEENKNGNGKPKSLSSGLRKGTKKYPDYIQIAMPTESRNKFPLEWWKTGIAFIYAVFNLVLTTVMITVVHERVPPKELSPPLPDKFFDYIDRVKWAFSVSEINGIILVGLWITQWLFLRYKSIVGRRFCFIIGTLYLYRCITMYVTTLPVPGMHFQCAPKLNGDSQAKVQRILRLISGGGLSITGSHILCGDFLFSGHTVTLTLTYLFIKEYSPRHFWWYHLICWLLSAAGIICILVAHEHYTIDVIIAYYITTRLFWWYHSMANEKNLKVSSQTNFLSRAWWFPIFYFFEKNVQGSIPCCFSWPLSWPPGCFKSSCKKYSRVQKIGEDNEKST

[1] = system: human corneal epithelial cells (HCEC); test: Cell viability and toxicity assay; format: cell-based; details: within 25 μmol/L; 48 h
[2] = SD rats
human SMS1 = target: T2, human SMS1 (Homo sapiens, UniProt Q86VZ5); test: purified SMS enzyme inhibitory assay in vitro; format: biochemical
T2 sequence (Q86VZ5 1-413): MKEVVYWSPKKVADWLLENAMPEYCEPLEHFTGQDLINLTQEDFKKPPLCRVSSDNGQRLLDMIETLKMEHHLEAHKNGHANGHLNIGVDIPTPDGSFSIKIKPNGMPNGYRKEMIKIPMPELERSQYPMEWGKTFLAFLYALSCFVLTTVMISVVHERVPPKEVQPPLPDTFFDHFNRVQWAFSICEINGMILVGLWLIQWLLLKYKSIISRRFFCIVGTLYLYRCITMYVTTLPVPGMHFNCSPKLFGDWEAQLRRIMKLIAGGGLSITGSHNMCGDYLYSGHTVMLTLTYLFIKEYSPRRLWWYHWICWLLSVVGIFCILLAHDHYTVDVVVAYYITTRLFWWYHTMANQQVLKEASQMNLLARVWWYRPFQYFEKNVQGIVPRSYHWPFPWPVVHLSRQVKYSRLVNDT

[3] = system: lipid content of meibomian glands; test: LC-MS/MS lipidomic analysis of murine meibomian gland tissue; format: in vivo, C57BL/6 mice; details: DED mice
murine DED model [4] = test: Tear volume measurement; format: in vivo, C57BL/6 mice; details: DED mice
in vivo = details: male, SD, rat, topical or ocular, 16 ug
[5] = system: Tnf-α, Il-1β and Mmp-9 mRNA in mouse corneas; test: Quantitative PCR analysis of mouse corneas; format: in vivo, C57BL/6 mice; details: DED mice, twice a day for 7 days
[6] = system: human corneal epithelial cells (HCEC); test: cells; details: 24 h, read-out: EC50 of protective effect on HCEC viability
[7] = system: TNFR1-Caspase3 activation in HCEC; test: Western blot of TNFR1, caspase3 and cleaved-caspase3 in HCEC; format: cell-based, human; details: 14l 1/3 and 1 μmol/L; TNF-α 10 ng/mL, 550 mOsm
[8] = system: SM synthesis (SMS activity) in HCEC; test: Cellular SM synthesis inhibitory assay in HCEC; format: cell-based, human; details: for EC50: Homo sapiens, HCEC, read-out: SM synthesis inhibitory EC50 in HCEC
murine DED model [9] = test: Corneal fluorescein staining in murine DED model; format: in vivo, C57BL/6 mice; details: DED mice; 14l low dose 0.001% twice a day for 7 days
[10] = system: TNF-α protein expression in HCEC; test: Western blot of TNF-α protein expression in HCEC under hyperosmotic stress; format: cell-based, human; details: 1 μmol/L; hyperosmotic 550 mOsm
[11] = system: human corneal epithelial cells (HCEC); details: 1 μmol/L; TNF-α (10 ng/mL), 550 mOsm; after incubation for 3 h
[12] = system: human corneal epithelial cells (HCEC); details: 14l 1/3 and 1 μmol/L, CsA 1 μmol/L; TNF-α 10 ng/mL, 550 mOsm, 5 h
[13] = Conjunctiva, single drop 16 μg/eye
[14] = Meibomian glands, single drop 16 μg/eye
[15] = 14l 0.001% and 0.025%, CsA 0.05%

CCCCCCCCOc1ccccc1COc1ccsc1C(=O)Nc1cccnc1 [14l, 3-((2-(Octyloxy)benzyl)oxy)-N-(pyridin-3-yl)thiophene-2-carboxamide]
IC50 (human SMS2): 28 nM
Selectivity ratio (human SMS2; IC50, SMS1/IC50, SMS2): 589
LLE (human SMS2; pIC50, SMS2 – ClogP): 2.21
inhibition at 1 µM (human SMS2; read-out: SMS2 Inhibition @ 1 μmol/L (%)): 95%
HCEC viability (MTT) [1]: less influence on the cell viability
AUC0‒t [2, 13]: 489.73 ng·h/g
AUC0‒∞ [2, 13]: 564.99 ng·h/g
AUC0‒t ([2]; Cornea, single drop 16 μg/eye): 4339.41 ng·h/g
AUC0‒∞ ([2]; Cornea, single drop 16 μg/eye): 4567.46 ng·h/g
AUC0‒t [2, 14]: 14379.61 ng·h/g
AUC0‒∞ [2, 14]: 14670.67 ng·h/g
adverse effect during the PK study ([2]; single drop 16 μg/eye): No adverse effect
detection in blood and retina ([2]; single drop 16 μg/eye): not detected in the blood and retina
ocular tissue distribution ([2]; single drop 16 μg/eye in 50% HP-β-CD): distributed mainly in the meibomian glands, conjunctiva and cornea
IC50 (human SMS1): 16000 nM
inhibition at 100 µM (human SMS1; read-out: SMS1 Inhibition @ 100 μmol/L (%)): 87%
levels of triglycerides (TG) and cholesterol esters (ChE) in meibomian glands ([3]; all treatment groups): not impacted in all treatment groups
proportion of very long chain SM species in meibomian glands ([3]; eye drops twice a day for 7 days): reduced the proportion of very long chain SM species
ceramide content in meibomian glands ([3]; high dosage of 14l (0.025%)): did not induce an extreme increase and accumulation for ceramide
tear volume (Schirmer's test) (murine DED model [4]; 14l high dose 0.025% or CsA (Zirun®) 0.05%, twice a day for 7 days): improved significantly
tear volume (Schirmer's test), 14l low dose (murine DED model [4]; 14l low dose 0.001% twice a day for 7 days): not in 14l low dose group
Cmax (in vivo; conjunctiva): 358 ng/g
Tmax (in vivo; conjunctiva): 0.25 h
half-life (in vivo; conjunctiva): 1.3 h
Cmax (in vivo; cornea): 3050 ng/g
Tmax (in vivo; cornea): 1 h
half-life (in vivo; cornea): 1.11 h
Cmax (in vivo; meibomian glands): 2730 ng/g
Tmax (in vivo; meibomian glands): 1 h
half-life (in vivo; meibomian glands): 4.32 h
Mmp-9 mRNA expression in cornea [5, 15]: decreased significantly in all treatment groups
Tnf-α mRNA expression in cornea [5, 15]: decreased significantly in all treatment groups
Il-1β mRNA expression in cornea ([5]; 14l high dose 0.025% or CsA 0.05%): reduced only in 14l high dose group and CsA treatment group
EC50 [6]: 611 nM
TNF-α-induced TNFR1-Caspase3 activation [7]: effectively prevent TNF-α-induced TNFR1-Caspase3 activation
effect on SMS activity of HCEC ([8]; 1 μmol/L): efficient SMS inhibitory activities
EC50 ([8]; 6 h): 300 nM
EC50 [8]: 0.131 µg/mL
corneal fluorescein scores, 14l low dose (murine DED model [9]): higher than the two other treatment groups but lower than the DED control group
TNF-α protein expression [10]: inhibited TNF-α protein expression
time-dependent protective effect in HCEC [11]: apparent and durative protective effect
HCEC population integrity and early apoptosis proportion [12]: a higher integrity of HCEC population and a less early apoptosis proportion
